The text below walks through data of patent publication US11331317B2, “Composition for treating vascular or cardiac valvular calcification, containing thiamine derivative” (KYUNGPOOK NATIONAL UNIVERSITY INDUSTRY-ACADEMIC COOPERATION …, priority 2018, dated 2022).

Structures are written as SMILES.

Assay [1] deals with vascular smooth muscle cells. Nature of the assay: Investigation of calcification of vascular smooth muscle cells (silver nitrate staining, optical microscope). Format: cell-based, cattle. The settings on record: inorganic phosphate (Pi)-induced, 100 and 200 μM, cultured 10 days, FIG. 1.
Protocol: The surrounding tissues were removed from the thoracoabdominal aorta isolated from male cattle, and endothelial cells that line blood vessels were removed. The cleaned blood vessels were divided into small fragments, which were then aligned on a culture dish containing Dulbecco's modified Eagle's medium (DMEM, Low Glucose, Thermo Fisher Scientific, USA) supplemented with 20% fetal bovine serum (FBS, Hyclone, Australia). Thereafter, culturing was performed in a cell incubator at 37° C. and 5% CO2 for 3-4 weeks. The vascular smooth muscle cells stretching out around the vascular tissues were subjected to primary culture with media changed every two days.
The vascular smooth muscle cells cultured in Preparation Example 1 above were stabilized by subculture in DMEM (high glucose) supplemented with penicillin/streptomycin antibiotics and 10% FBS. […]
After the induction of calcification by the method in Preparation Example 2 above, the media were removed from the culture dishes, followed by washing with phosphate buffer saline (PBS) three times. […] Thereafter, the cells were washed with primary distilled water two or three times, and then were determined for a degree of calcification through an optical microscope (BX53 microscope, Olympus, Japan).
The test system of assay [2] is vascular smooth muscle cells. Nature of the assay: Quantification of calcium in vascular smooth muscle cells. It counts as cell-based, cattle. The note with it: inorganic phosphate-induced, 100 and 200 μM, corrected by protein amount, p<0.01 vs Vehicle, FIG. 2.
Protocol: The surrounding tissues were removed from the thoracoabdominal aorta isolated from male cattle, and endothelial cells that line blood vessels were removed. The cleaned blood vessels were divided into small fragments, which were then aligned on a culture dish containing Dulbecco's modified Eagle's medium (DMEM, Low Glucose, Thermo Fisher Scientific, USA) supplemented with 20% fetal bovine serum (FBS, Hyclone, Australia). Thereafter, culturing was performed in a cell incubator at 37° C. and 5% CO2 for 3-4 weeks. The vascular smooth muscle cells stretching out around the vascular tissues were subjected to primary culture with media changed every two days. […]
After the induction of calcification by the method in Preparation Example 2 above, the media were removed from the culture dishes, followed by washing with PBS. Then, the cells were decalcified by treatment with 0.6 N HCl at 4° C. for 24 hours, The supernatant was recovered for the use in the quantification of calcium, and proteins were extracted from the cells by using 0.1 N NaOH/0.1% SDS, and quantified by using the BCA method. […]
(ODSAMPLE and ODBLANK represent the OD612nm values of calcium sample and blank (water), respectively; and the slope represents the inclination value on the measured absorbance graph)
The test system of assay [3] is C57BL/6J mice. Put plainly: In vivo vitamin D3-induced vascular calcification, Von Kossa staining of aorta. The settings on record: FIG. 3. An excerpt: (§1) C57BL/6J mice aged 8-9 weeks were grouped into 5 groups of 7 mice each, and four groups (one group being used as a control) underwent the induction of vascular calcification by subcutaneous administration of a high dose (9.0×10^5 IU) of vitamin D3 (Vit. D3) once a day for a total of 3 days.
First, on the 10th day after the administration of vitamin D3, the mice were sacrificed and the abdomen was opened, and then the aorta was separated by cleanly removing surrounding tissues of the aorta, and fixed with 4% paraformaldehyde (PFA) for 24 hours. The fixed aorta was washed, immersed in a 5% silver nitrate solution, and incubated under UV light for 30 minutes.

Assay [4] deals with C57BL/6J mice. Put plainly: In vivo vitamin D3-induced vascular calcification, calcium quantification in aorta. The note with it: FIG. 4.
From the text: as §1
Additionally, on the 10th day after the administration of vitamin D3, the mice were sacrificed and the abdomen was opened, and then the aorta was separated by cleanly removing surrounding tissues and frozen in liquid nitrogen. The frozen tissues were thawed, weighed after the removal of moisture, and then subjected to decalcification with a 0.6 N HCl solution. The colorimetric Ca quantification kit (Bioassay DICA-500) was used to quantify calcium in the 0.6 N HCl solution used in the decalcification, and the calcium quantification was corrected by using the tissue weight.

Regarding `C=CCSS/C(CCO)=C(/C)N(C=O)Cc1cnc(C)nc1N` [allithiamine, thiamine allyl disulfide], in assay [1], the “calcification (black dots)” value is on record as “inhibited”. For the same compound, the “calcium amount increased by inorganic phosphate” value in assay [2] is “decreased”.
As to `CC(=C(CCO)SSCC1CCCO1)N(C=O)Cc1cnc(C)nc1N` (stereo in doubt) [fursultiamine, thiamine tetrahydrofurfuryl disulfide], the “colored parts of aorta (Von Kossa staining)” value in assay [3] (10 mg/kg and 30 mg/kg oral once a day for 13 days) is “reduced (recovered) dose-dependently”. In addition, the “degree of recovery compared with the DCA administration group (positive control)” value in assay [3] (30 mg/kg oral) is “excellent”. Moreover, the “calcification (black dots)” value in assay [1] is “inhibited”. Further, in assay [2], the “calcium amount increased by inorganic phosphate” value was “decreased”. The “amount of calcium in the aorta” value in assay [4] (10 mg/kg and 30 mg/kg oral once a day for 13 days, corrected by tissue weight) is on record as “decreased dose-dependently”. In assay [4] (10 mg/kg and 30 mg/kg oral), the “degrees of decrease of calcium compared with the DCA group (positive control)” value is recorded as “excellent”.
